Assay results as given in patent US20250041294A1, “Synergistic compositions for use in the treatment of cancer” (Sartar Therapeutics Oy, priority 2021, published 2025).

Tests used:
Format in all cases: cell-based
[1] = test system: GIST882, GOT3 and SA4 cell lines; test: High throughput drug sensitivity and resistance test, average over cell lines (BAY2666605 combination); conditions: for Average DSS (aDSS): BAY2666605 combination, average of GIST882, SA4 and GOT3, aDSS higher than 3.0 = synergy; for synergy in high-throughput screening (in words): with anagrelide (GOT3, SA4) or BAY2666605 (GIST882, GOT3, SA4)
Description: (§1) Cell lines. PDE3A-positive (GIST882, SA4, and GOT3) and PDE3A-negative cell lines (93TT449, 94T778, LPS141, MLS17656-92, MLS402-91, and SW872) were cultured in RPMI Medium 1640 (Gibco) with 5-, 10- or 20% fetal bovine serum (FBS, gibco), 100 U/mL of penicillin, 100 […] and 0.03 mg/mL of L-glutamine (Pen Strep Glut, Gibco, 10378-016) in a humidified, 5% CO2 atmosphere at 37° C.
(§2) High throughput drug sensitivity and resistance test. A sensitivity and resistance of cancer cell lines to 528 compounds were investigated in 9 cell lines (GIST882, SA4, GOT3, 93TT449, 94T778, LPS141, MLS17656-92, MLS402-91, and SW872). In addition, same compounds were investigated together with anagrelide hydrochloride (100 nM) treatment in the PDE3A low expressing cell lines SA4 and GOT3, and with BAY2666605 (40 nM) in all PDE3A-positive cell lines GIST882, SA4 and GOT3. The compounds were dissolved in 100% dimethyl sulfoxide or water and plated in 10-fold dilutions covering a 10,000-fold concentration range on flat clear bottom 384-well microplates as described in detail earlier (Pulkka O P, et al 2019). A cell viability was measured after 72 hours using CellTiter-Glo Cell Viability assay (Promega Inc.) and PHERAstar FS plate reader (BMG Labtech). The data were normalized to negative (0.01% dimethyl sulfoxide only) and positive (100 μmol/L benzethonium chloride) controls.
(§3) A four-parameter logistic dose-response curves were estimated by using the Marquardt-Levenberg algorithm and Breeze analysis platform. Drug responses to the test compounds were measured using the drug sensitivity score (DSS). Drug synergy partners, which were common in investigated cell lines were identified as following: DSS value of a single agent was subtracted from the DSS value of anagrelide-drug combination in single cell lines. […] The analysis was repeated by using BAY2666605 as a PDE3A modulator.

[2] = test system: GIST882 cell line; test: High throughput drug sensitivity and resistance test (CellTiter-Glo, 72 hours); conditions: drug combined with BAY2666605 (40 nM) minus drug alone
Description: High throughput drug sensitivity and resistance test. […] In addition, same compounds were investigated together with anagrelide hydrochloride (100 nM) treatment in the PDE3A low expressing cell lines SA4 and GOT3, and with BAY2666605 (40 nM) in all PDE3A-positive cell lines GIST882, SA4 and GOT3. […] A cell viability was measured after 72 hours using CellTiter-Glo Cell Viability assay (Promega Inc.) and PHERAstar FS plate reader (BMG Labtech). The data were normalized to negative (0.01% dimethyl sulfoxide only) and positive (100 μmol/L benzethonium chloride) controls.
as §3

[3] = test system: GOT3 cell line; test: as above; conditions: GOT3; for GOT3 cell line: DSS(combo (BAY2666605))-DSS(drug): drug combined with BAY2666605 (40 nM) minus drug alone; for GOT3 cell line: DSS(combo (anagrelide))-DSS(drug): drug combined with anagrelide hydrochloride (100 nM) minus drug alone
Description: as §1, §2, §3

[4] = test system: SA4 cell line; test: as above; conditions: SA4; for SA4 cell line: DSS(combo (BAY2666605))-DSS(drug): drug combined with BAY2666605 (40 nM) minus drug alone; for SA4 cell line: DSS(combo (anagrelide))-DSS(drug): drug combined with anagrelide hydrochloride (100 nM) minus drug alone
Description: as §1, §2, §3

[5] = test system: GOT3 and SA4 cell lines; test: High throughput drug sensitivity and resistance test, average over cell lines (anagrelide combination); conditions: anagrelide combination, average of SA4 and GOT3; aDSS higher than 3.0 = synergy
Description: as §1, §2, §3

SMILES | Average DSS (aDSS) [1] | synergy in high-throughput screening (in words) [1] | GIST882 cell line: DSS(combo (BAY2666605))-DSS(drug) [2] | GOT3 cell line: DSS(combo (BAY2666605))-DSS(drug) [3] | GOT3 cell line: DSS(combo (anagrelide))-DSS(drug) [3] | SA4 cell line: DSS(combo (BAY2666605))-DSS(drug) [4] | SA4 cell line: DSS(combo (anagrelide))-DSS(drug) [4] | Average DSS (aDSS) [5]
CC(=O)c1cnc2ccc(-c3cc(Cl)c(O)c(Cl)c3)nc2c1N[C@H]1CC[C@H](CN(C)C)CC1 [OTS167] | 5.2 | synergistic | 1.9 | 3.2 | 0.6 | 10.5 | 10.5 | 5.55
CCCCc1nc2cc(/C=C/C(=O)NO)ccc2n1CCN(CC)CC [Pracinostat, pracinostat] | 6.4 | synergistic | 5.7 | 1.5 | −1.4 | 12 | 14.8 | 6.7
CC1(C)CCC(CN2CCN(c3ccc(C(=O)NS(=O)(=O)c4ccc(NCC5CCOCC5)c([N+](=O)[O-])c4)c(Oc4cnc5[nH]ccc5c4)c3)CC2)=C(c2ccc(Cl)cc2)C1 [Venetoclax, venetoclax] | 13.8 | – | 12.2 | 0.2 | 0 | 29 | 6.2 | 3.1
COc1cc(C(=O)O)ccc1NC(=O)[C@@H]1N[C@@H](CC(C)(C)C)[C@](C#N)(c2ccc(Cl)cc2F)[C@H]1c1cccc(Cl)c1F [Idasanutlin, idasanutlin] | 6.4 | synergistic | 0 | −0.5 | −1 | 19.6 | 8.5 | 3.75
O=C(/C=C/c1cccc(S(=O)(=O)Nc2ccccc2)c1)NO [Belinostat, belinostat] | 5.4 | synergistic | −0.3 | 0.8 | 1.1 | 15.8 | 10 | 5.55
CCN(CC)Cc1ccc2cc(COC(=O)Nc3ccc(C(=O)NO)cc3)ccc2c1 [Givinostat, givinostat] | 9.6 | synergistic | 7.3 | 3 | −0.7 | 18.5 | 10 | 4.65
CN(C)Cc1ccc(S(=O)(=O)n2ccc(/C=C/C(=O)NO)c2)cc1 [Resminostat, resminostat] | 6.0 | synergistic | 3.1 | 3.1 | −0.1 | 11.7 | 13.5 | 6.7
CO[C@@H](C)Cn1c(=O)n(C)c2cnc3ccc(-c4cncc(C(C)(C)O)c4)cc3c21 [LY3023414] | 4.4 | synergistic | 2.4 | 1.5 | – | 9.3 | – | –
CN(C)CCCOc1ccc(-c2ccc3ncc4c(c3c2)n(C2CCOCC2)c(=O)n4C)cn1 [AZD0156] | 3.1 | synergistic | 7.5 | −1.2 | – | 3 | – | –
